In patent publication US20230000813A1, “COMPOUND FOR THE TREATMENT OF BOVINE OR SWINE RESPIRATORY DISEASE” (Intervet Inc., priority 2016, published 2023):
≈ marks a conversion by molar mass, not a printed value.

Tests used:
Test in all cases: MIC, broth-microdilution (CLSI VET01-A4)
Assay type in all cases: cell-based
[1] = system: Mannheimia haemolytica MH 12587 (1071, BRD field isolate, macrolide-resistance: erm+, E+); settings: Mannheimia haemolytica MH 12587, macrolide-resistant
Experimental: (§1) The Minimum inhibitory concentrations (MIC) of compounds according to the invention for a number of veterinary bacterial pathogens were determined by the broth-microdilution method according to CLSI document VET01-A4.
(§2) Microdilution trays containing a doubling dilution series of the test compound were used for the tests. The MIC results were interpreted according to the CLSI documents VET01-S3. The lowest concentration of compound at which no visible growth (i.e. no turbidity) detected by the unaided eye was recorded as the MIC.
(§3) The Minimum inhibitory concentrations (MIC) of compounds according to the invention were determined by the broth-microdilution method according to CLSI document VET01-A4.
(§4) Microdilution trays containing a doubling dilution series of the test compound were used for the tests.
(§5) The MIC results were interpreted according to the CLSI documents VET01-S3. The lowest concentration of compound at which no visible growth (i.e. no turbidity) detected by the unaided eye was recorded as the MIC.

[2] = system: Mannheimia haemolytica MH 6357 (M7/2, reference strain, cattle infection strain); settings: Mannheimia haemolytica MH 6357; for MIC: read-out: MIC MH 6357
Experimental: as §1, §2, §3, §4, §5

[3] = system: Mannheimia haemolytica MH 6374 (ATCC 33396, reference strain); settings: Mannheimia haemolytica MH 6374; for MIC: read-out: MIC MH 6374
Experimental: as §1, §2, §3, §4, §5

[4] = system: Pasteurella multocida PM 10775 (080130003051, BRD field isolate); settings: Pasteurella multocida PM 10775
Experimental: as §1, §2, §3, §4, §5

[5] = system: Pasteurella multocida PM 12080 (IV102277-0093, BRD field isolate); settings: Pasteurella multocida PM 12080; for MIC: read-out: MIC PM 12080
Experimental: as §1, §2, §3, §4, §5

[6] = system: Pasteurella multocida PM 6267 (P 2225 (L386), reference strain, mouse infection strain); settings: Pasteurella multocida PM 6267; for MIC: read-out: MIC PM 6267
Experimental: as §1, §2, §3, §4, §5

[7] = system: Pasteurella multocida PM 6391 (ATCC 43137, reference strain); settings: Pasteurella multocida PM 6391; for MIC: read-out: MIC PM 6391
Experimental: as §1, §2, §3, §4, §5

[8] = system: Mannheimia haemolytica MH 13065 (XB0446-6003.9, BRD field isolate)
Experimental: as §1, §2

[9] = system: Mannheimia haemolytica MH 13093 (XB0472-6014.1, BRD field isolate)
Experimental: as §1, §2

[10] = system: Mannheimia haemolytica MH 10720 (154, BRD field isolate); settings: Mannheimia haemolytica MH 10720; for MIC: read-out: MIC MH 10720
Experimental: as §1, §2, §3, §4, §5

| SMILES | MIC MH 12587 [1] | MIC [2] | MIC [3] | MIC PM 10775 [4] | MIC PM 12080 [5] | MIC PM 6267 [6] | MIC PM 6391 [7] | MIC [8] | MIC [9] | MIC [5] | MIC [7] | MIC MH 6357 [2] | MIC MH 6374 [3] | MIC MH 13065 [8] | MIC MH 13093 [9] | MIC [6] | MIC MH 10720 [10] | MIC [10] |
| --- | --- | --- | --- | --- | --- | --- | --- | --- | --- | --- | --- | --- | --- | --- | --- | --- | --- | --- |
| C[C@@H](O)[C@H](NC(=O)c1ccc(C#Cc2ccc(CNC3CC3)s2)cc1)C(=O)NO [Compound 398] | 0.4 µM (≈ 0.165 µg/mL) | 0.4 µM (≈ 0.165 µg/mL) | 0.8 µM (≈ 0.331 µg/mL) | <=0.1 μM | <=0.1 μM | <=0.1 μM | <=0.1 μM | 0.2 µM (≈ 0.0827 µg/mL) | 0.2 µM (≈ 0.0827 µg/mL) | – | – | – | – | – | – | – | – | – |
| C[C@@H](O)[C@H](NC(=O)c1ccc(C#Cc2ccc(CNCC3CCCO3)s2)cc1)C(=O)NO (stereo partly drawn) [C. 412] | 1.6 µM (≈ 0.732 µg/mL) | 0.8 µM (≈ 0.366 µg/mL) | 0.8 µM (≈ 0.366 µg/mL) | <=0.1 μM | – | <=0.1 μM | – | 0.8 µM (≈ 0.366 µg/mL) | 1.6 µM (≈ 0.732 µg/mL) | 0.4 µM (≈ 0.183 µg/mL) | 0.2 µM (≈ 0.0915 µg/mL) | – | – | – | – | – | – | – |
| C[C@@H](O)[C@H](NC(=O)c1ccc(C#Cc2ccc(CNCc3cccs3)s2)cc1)C(=O)NO [Compound 410] | 0.2 µM (≈ 0.0939 µg/mL) | – | – | <=0.1 μM | <=0.1 μM | <=0.1 μM | <=0.1 μM | – | – | – | – | <=0.1 μM | <=0.1 μM | <=0.1 μM | <=0.1 μM | – | – | – |
| C[C@@H](O)[C@H](NC(=O)c1ccc(C#Cc2ccc(CNC3CC3)nc2)cc1)C(=O)NO [C. 413] | 0.8 µM (≈ 0.327 µg/mL) | 0.4 µM (≈ 0.163 µg/mL) | 0.8 µM (≈ 0.327 µg/mL) | <=0.1 μM | <=0.1 μM | <=0.1 μM | <=0.1 μM | 0.4 µM (≈ 0.163 µg/mL) | 0.4 µM (≈ 0.163 µg/mL) | – | – | – | – | – | – | – | – | – |
| C[C@@H](O)[C@H](NC(=O)c1ccc(C#Cc2ccc(CNCc3ccco3)s2)cc1)C(=O)NO [Compound 409] | 0.4 µM (≈ 0.181 µg/mL) | 0.2 µM (≈ 0.0907 µg/mL) | – | <=0.1 μM | <=0.1 μM | <=0.1 μM | <=0.1 μM | – | 0.2 µM (≈ 0.0907 µg/mL) | – | – | – | <=0.1 μM | <=0.1 μM | – | – | – | – |
| C[C@@H](O)[C@H](NC(=O)c1ccc(C#Cc2ccc(CNCc3ccccn3)s2)cc1)C(=O)NO [Compound 408] | 0.8 µM (≈ 0.372 µg/mL) | 0.4 µM (≈ 0.186 µg/mL) | 0.4 µM (≈ 0.186 µg/mL) | <=0.1 μM | <=0.1 μM | <=0.1 μM | <=0.1 μM | 0.4 µM (≈ 0.186 µg/mL) | 0.4 µM (≈ 0.186 µg/mL) | – | – | – | – | – | – | – | – | – |
| C[C@@H](O)[C@H](NC(=O)c1ccc(C#Cc2ccc(CNCC#N)s2)cc1)C(=O)NO [Compound 406] | 1.6 µM (≈ 0.66 µg/mL) | 1.6 µM (≈ 0.66 µg/mL) | 1.6 µM (≈ 0.66 µg/mL) | <=0.1 μM | – | <=0.1 μM | – | 0.8 µM (≈ 0.33 µg/mL) | 1.6 µM (≈ 0.66 µg/mL) | 0.4 µM (≈ 0.165 µg/mL) | 0.2 µM (≈ 0.0825 µg/mL) | – | – | – | – | – | – | – |
| C[C@@H](O)[C@H](NC(=O)c1ccc(C#Cc2ccc(CNCc3ccncc3)s2)cc1)C(=O)NO [Compound 401] | 0.8 µM (≈ 0.372 µg/mL) | 0.4 µM (≈ 0.186 µg/mL) | 0.8 µM (≈ 0.372 µg/mL) | <=0.1 μM | – | <=0.1 μM | – | 0.4 µM (≈ 0.186 µg/mL) | 0.8 µM (≈ 0.372 µg/mL) | 0.2 µM (≈ 0.0929 µg/mL) | 0.2 µM (≈ 0.0929 µg/mL) | – | – | – | – | – | – | – |
| Cc1ccc(CNCc2ccc(C#Cc3ccc(C(=O)N[C@H](C(=O)NO)[C@@H](C)O)cc3)s2)cc1 [Compound 411] | 0.4 µM (≈ 0.191 µg/mL) | 0.2 µM (≈ 0.0955 µg/mL) | – | <=0.1 μM | <=0.1 μM | <=0.1 μM | <=0.1 μM | – | 0.2 µM (≈ 0.0955 µg/mL) | – | – | – | <=0.1 μM | <=0.1 μM | – | – | – | – |
| C[C@@H](O)[C@H](NC(=O)c1ccc(C#Cc2ccc(CNC3CCC3)s2)cc1)C(=O)NO [Compound 402] | 1.6 µM (≈ 0.684 µg/mL) | 0.8 µM (≈ 0.342 µg/mL) | 0.8 µM (≈ 0.342 µg/mL) | <=0.1 μM | – | <=0.1 μM | – | 0.4 µM (≈ 0.171 µg/mL) | 0.8 µM (≈ 0.342 µg/mL) | 0.4 µM (≈ 0.171 µg/mL) | 0.2 µM (≈ 0.0855 µg/mL) | – | – | – | – | – | – | – |
| C[C@@H](O)[C@H](NC(=O)c1ccc(C#Cc2ccc(CNCc3cccnc3)s2)cc1)C(=O)NO [Compound 407] | 0.4 µM (≈ 0.186 µg/mL) | 0.4 µM (≈ 0.186 µg/mL) | 0.4 µM (≈ 0.186 µg/mL) | <=0.1 μM | <=0.1 μM | <=0.1 μM | <=0.1 μM | 0.2 µM (≈ 0.0929 µg/mL) | 0.4 µM (≈ 0.186 µg/mL) | – | – | – | – | – | – | – | – | – |
| CCCNCc1ccc(C#Cc2ccc(C(=O)N[C@H](C(=O)NO)[C@@H](C)O)cc2)s1 [Compound 404] | 1.6 µM (≈ 0.665 µg/mL) | 1.6 µM (≈ 0.665 µg/mL) | 1.6 µM (≈ 0.665 µg/mL) | <=0.1 μM | – | – | – | 0.8 µM (≈ 0.332 µg/mL) | 1.6 µM (≈ 0.665 µg/mL) | 0.8 µM (≈ 0.332 µg/mL) | 0.4 µM (≈ 0.166 µg/mL) | – | – | – | – | 0.4 µM (≈ 0.166 µg/mL) | – | – |
| C[C@@H](O)[C@H](NC(=O)c1ccc(C#Cc2ccc(CNCc3cccs3)nc2)cc1)C(=O)NO [Compound 425] | 0.8 µM (≈ 0.372 µg/mL) | 0.8 µM (≈ 0.372 µg/mL) | 0.8 µM (≈ 0.372 µg/mL) | <=0.1 μM | <=0.1 μM | <=0.1 μM | <=0.1 μM | 0.4 µM (≈ 0.186 µg/mL) | 0.8 µM (≈ 0.372 µg/mL) | – | – | – | – | – | – | – | – | – |
| C[C@@H](O)[C@H](NC(=O)c1ccc(C#Cc2ccc(CNCc3ccco3)nc2)cc1)C(=O)NO [Compound 424] | 1.6 µM (≈ 0.718 µg/mL) | 0.8 µM (≈ 0.359 µg/mL) | 1.6 µM (≈ 0.718 µg/mL) | <=0.1 μM | <=0.1 μM | <=0.1 μM | <=0.1 μM | 0.4 µM (≈ 0.179 µg/mL) | 0.8 µM (≈ 0.359 µg/mL) | – | – | – | – | – | – | – | – | – |
| CC(C)(N)C(NC(=O)c1ccc(C#Cc2ccc(CNC3CC3)s2)cc1)C(=O)NO (stereo not drawn) [C. 521] | 0.8 µM (≈ 0.341 µg/mL) | 0.8 µM (≈ 0.341 µg/mL) | 0.4 µM (≈ 0.171 µg/mL) | – | <=0.1 μM | – | <=0.1 μM | 1.6 µM (≈ 0.682 µg/mL) | 0.8 µM (≈ 0.341 µg/mL) | – | – | – | – | – | – | 0.8 µM (≈ 0.341 µg/mL) | <=0.1 μM | – |
| C=CCNCc1ccc(C#Cc2ccc(C(=O)N[C@H](C(=O)NO)[C@@H](C)O)cc2)cn1 [C. 415] | 1.6 µM (≈ 0.654 µg/mL) | 0.8 µM (≈ 0.327 µg/mL) | 1.6 µM (≈ 0.654 µg/mL) | <=0.1 μM | – | – | – | 0.4 µM (≈ 0.163 µg/mL) | 1.6 µM (≈ 0.654 µg/mL) | 0.4 µM (≈ 0.163 µg/mL) | 0.2 µM (≈ 0.0817 µg/mL) | – | – | – | – | 0.2 µM (≈ 0.0817 µg/mL) | – | – |
| CC(C)(N)C(NC(=O)c1ccc(C#Cc2ccc(CNCc3cccs3)nc2)cc1)C(=O)NO (racemic) [Compound 549] | 1.6 µM (≈ 0.764 µg/mL) | 0.8 µM (≈ 0.382 µg/mL) | 0.4 µM (≈ 0.191 µg/mL) | – | <=0.1 μM | – | <=0.1 μM | 0.8 µM (≈ 0.382 µg/mL) | 1.6 µM (≈ 0.764 µg/mL) | – | – | – | – | – | – | 0.8 µM (≈ 0.382 µg/mL) | – | 0.4 µM (≈ 0.191 µg/mL) |
| CC(C)(N)C(NC(=O)c1ccc(C#Cc2ccc(CNCc3ccccn3)s2)cc1)C(=O)NO (stereo not drawn) [Compound 534] | 1.6 µM (≈ 0.764 µg/mL) | 0.8 µM (≈ 0.382 µg/mL) | 0.8 µM (≈ 0.382 µg/mL) | – | <=0.1 μM | – | <=0.1 μM | 0.8 µM (≈ 0.382 µg/mL) | 1.6 µM (≈ 0.764 µg/mL) | – | – | – | – | – | – | 1.6 µM (≈ 0.764 µg/mL) | – | 0.2 µM (≈ 0.0955 µg/mL) |
